Assay results published in US12049483B2, “Selective and noncovalent inhibitors of oncogenic RAS mutants” (New York University, priority 2020, dated 2024).
“Also recorded” adds a separate entry of the source.

What was measured:
KRAS(G12D) = biological target: T1, KRAS(G12D) (Homo sapiens, UniProt P01116, G12D); test: Yeast display binding titration, KRAS(G12D); conditions: GTPγS and GDP bound states
T1 construct: KRAS4B residues 1-174 containing G12C, G12V, G12D, G13D, Q61L, WT; made in house; host or cells: E. coli BL21(DE3) with pBirA
Protocol: (§1) Nucleotide exchange of RAS. Purified RAS proteins used in binding experiment and crystallization were prepared by diluting stock protein (typically containing 20-250 μM RAS) 25 times with 20 mM Tris-Cl buffer pH 7.5 containing 5 mM EDTA, 0.1 mM DTT and 1 mM final concentration of a nucleotide (GDP or GTPγS). Samples were incubated at 30° C. for 30 minutes. MgCl2 was then added to the sample at a final concentration of 20 mM and the solution was further incubated on ice for at least 5 minutes prior to use.
(§2) Monobody development. General procedures for the development of monobodies against purified protein targets have been described previously. After four rounds of phage display library selection using biotinylated KRAS(G12C) at concentrations of 100 nM, 100 nM, 50 nM and 50 nM, the genes encoding monobodies from the enriched phage pool were transferred to a yeast display vector, which was used to construct yeast-display libraries. The yeast display libraries were sorted using a Bio-Rad S3e fluorescence-activated cell sorter or a […] II cell sorter (BD Biosciences). […] Single clones were then screened for selective binding to RAS mutants. The expression of monobodies on the surface of yeast cells were detected using mouse anti-VS and anti-mouse IgG-FITC conjugate. Target binding was detected with neutravidin Dylight650. Yeast cells were analyzed using an iQue flow cytometer (Sartorius). […]

HRAS(WT) = biological target: T2, HRAS(WT) (Homo sapiens, UniProt P01112); test: Yeast display binding titration, HRAS(WT); conditions: GTPγS and GDP bound states
T2 construct: made in house; host or cells: E. coli BL21(DE3) with pBirA
T2 sequence (P01112 whole entry): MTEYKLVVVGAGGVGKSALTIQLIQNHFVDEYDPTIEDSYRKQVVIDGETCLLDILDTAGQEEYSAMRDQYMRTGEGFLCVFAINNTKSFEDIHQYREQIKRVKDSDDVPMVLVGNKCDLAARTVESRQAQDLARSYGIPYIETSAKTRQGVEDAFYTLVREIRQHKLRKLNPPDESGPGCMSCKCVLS
Protocol: as §1, §2

[1] = test system: endogenous KRAS from PATU8902 (KRAS(G12V)) and H358 (KRAS(G12C)); test: Pull-down assay with biotinylated 12VC1 from cell lysates; format: binding; conditions: PATU8902 and H358 lysates vs growth factor stimulated HEK293T (wild-type RAS)
Protocol: Pull-down assays. H358, PATU8902, and HEK293T cells were cultured in 10 cm plates (Corning, #430167). H358 and PATU8902 cells were treated with and without ARS1620 (SelleckChem, 58707) at a final concentration of 10 μM for 1.5 hours, and HEK293T cells were treated with EGF (PeproTech; AF-100-15) at a final concentration of 50 ng/mL for 4 minutes. Cells were lysed by incubating them on ice for 15 minutes in GTPase lysis buffer (25 mM Tris-Cl pH 7.2, 150 mM NaCl, 5 mM MgCl2, 1% NP-40 and 5% glycerol supplemented with protease tablet (Roche, 5892991001) and phosphatase inhibitors (1 mM sodium orthovanadate, 10 mM NAF, 54 mM β-glycerol phosphate)) immediately before analysis. After centrifugation for 15 minutes at 15,000 g, the supernatants were collected and incubated with SA agarose resins (Thermo Fisher Scientific) for 1 hour at 4° C. to remove non-specific binders to the resins. After the removal of resins via centrifugation, the pre-cleared lysates were then incubated with biotinylated monobodies bound to SA agarose resins for 3 hours at 4° C. while rotating. The agarose resins were then washed twice with the GTPase lysis buffer and boiled in 1×SDS buffer with 37.5 mM β-mercaptoethanol and processed for Western blotting using a pan-RAS antibody (Santa Cruz Biotechnology, C-4).

PATU8902 tumors = test: Mouse xenograft model, PATU8902; format: in vivo; conditions: subcutaneous PATU8902 in nude mice; dox-induced expression after tumor size exceeded 100 mm^3
Protocol: Mouse xenograft experiments. Animal experiments were approved by NYU Langone Institutional Animal Care and Use Committee (IACUC, protocol 170602). PATU8902 or H23 cells expressing monobody under a dox-inducible promotor (5×10^6) were subcutaneously injected into athymic nude mice (Charles River). Once the average tumor size exceeded 100 mm^3, the mice were given food containing doxycycline (Envigo; TD.01306). Tumor sizes were measured using a digital caliper thrice a week along with body weight to ensure that mice were healthy through the duration of doxycycline treatment.

KRAS(G12C) = KRAS(G12C) (Homo sapiens, UniProt P01116, G12C); test: Competitive binding assay of 12VC1 against known interaction partners of RAS (yeast display); design: KRAS4B residues 1-174 containing G12C, G12V, G12D, G13D, Q61L, WT; His6 (N, cleaved yes); Avi-tag (N, cleaved yes); made in house; host or cells: E. coli BL21(DE3)
Protocol: After four rounds of phage display library selection using biotinylated KRAS(G12C) at concentrations of 100 nM, 100 nM, 50 nM and 50 nM, the genes encoding monobodies from the enriched phage pool were transferred to a yeast display vector, which was used to construct yeast-display libraries. The yeast display libraries were sorted using a Bio-Rad S3e fluorescence-activated cell sorter or a [sequence] II cell sorter (BD Biosciences). […] The expression of monobodies on the surface of yeast cells were detected using mouse anti-VS and anti-mouse IgG-FITC conjugate. Target binding was detected with neutravidin Dylight650. Yeast cells were analyzed using an iQue flow cytometer (Sartorius).

- binding (KRAS(G12D)): no binding
- competition with RAF1-RBD for binding to RAS (KRAS(G12C)): competed
Sequence: VSSVPTKLEVVAATPTSLLISWDAPAVTVFFYVITYGETGHGVGAFQAFKVPGSKSTATISGLKPGVDYTITVYARGYSKQGPYKPSPISINYRT [12VC1]
- binding (HRAS(WT)): no binding; also recorded: did not detectably bind
- capture of endogenous KRAS in pull-down [1]: selectively captured endogenous KRAS
- tumor growth (PATU8902 tumors): significantly reduced tumor growth
